Data set [1] has as its target T1, Protein mono-ADP-ribosyltransferase PARP11 (Homo sapiens, UniProt Q9NR21).
T1 sequence (Q9NR21 whole entry): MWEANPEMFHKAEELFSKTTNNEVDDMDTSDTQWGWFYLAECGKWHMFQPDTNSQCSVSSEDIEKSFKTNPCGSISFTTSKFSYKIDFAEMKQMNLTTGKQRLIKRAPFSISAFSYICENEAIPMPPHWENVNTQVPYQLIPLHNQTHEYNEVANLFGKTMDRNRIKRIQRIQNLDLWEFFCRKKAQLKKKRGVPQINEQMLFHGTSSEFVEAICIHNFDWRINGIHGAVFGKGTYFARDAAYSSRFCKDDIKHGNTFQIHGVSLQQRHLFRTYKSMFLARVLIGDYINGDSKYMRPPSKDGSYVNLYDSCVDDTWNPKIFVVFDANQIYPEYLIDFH
Briefly: Inhibition of human recombinant N-terminal GST-tagged / C-terminal His-tagged PARP11 (8 to 338 end residues) expressed in baculovirus infected Sf9 cells expression system incubated for 1 hr by ELISA assay. In general terms: In an ELISA, binding on a coated surface is turned into a signal by an enzyme label.

In data set [2] the target is T2, Protein mono-ADP-ribosyltransferase PARP12 (Homo sapiens, UniProt Q9H0J9).
T2 sequence (Q9H0J9 whole entry): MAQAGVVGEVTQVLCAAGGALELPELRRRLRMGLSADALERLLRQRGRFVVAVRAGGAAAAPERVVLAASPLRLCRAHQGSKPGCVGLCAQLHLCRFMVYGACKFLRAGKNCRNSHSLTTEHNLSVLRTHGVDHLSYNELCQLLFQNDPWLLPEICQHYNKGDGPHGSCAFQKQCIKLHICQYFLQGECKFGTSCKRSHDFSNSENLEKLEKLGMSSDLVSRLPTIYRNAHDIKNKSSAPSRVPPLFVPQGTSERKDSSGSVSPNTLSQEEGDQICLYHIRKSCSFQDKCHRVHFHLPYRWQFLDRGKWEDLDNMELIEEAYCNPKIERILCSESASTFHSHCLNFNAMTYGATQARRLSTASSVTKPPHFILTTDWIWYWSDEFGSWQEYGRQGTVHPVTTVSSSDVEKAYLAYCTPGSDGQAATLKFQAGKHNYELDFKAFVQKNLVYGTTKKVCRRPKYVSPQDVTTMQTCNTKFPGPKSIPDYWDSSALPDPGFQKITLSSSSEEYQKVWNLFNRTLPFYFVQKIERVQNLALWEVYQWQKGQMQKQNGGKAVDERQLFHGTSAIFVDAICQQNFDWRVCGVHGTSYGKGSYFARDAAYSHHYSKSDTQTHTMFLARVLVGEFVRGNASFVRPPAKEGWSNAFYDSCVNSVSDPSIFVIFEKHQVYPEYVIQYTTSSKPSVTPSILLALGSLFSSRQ
Briefly: Inhibition of human recombinant N-terminal GST-tagged PARP12 (500 to 701 end residues) expressed in baculovirus infected Sf9 cells expression system incubated for 1 hr by ELISA assay.

A short description of data set [3]: Half life in ICR mouse at 1 mg/kg, iv measured upto 24 hrs by LC-MS/MS analysis. The note with it: in vivo. It is filed as ADME, organism-based.
Data set [4] is described as follows: Tmax in ICR mouse at 10 mg/kg, po measured upto 24 hrs by LC-MS/MS analysis. The note with it: in vivo. It is filed as ADME, organism-based.
The nature of data set [5]: MRT(0 to infinity) in ICR mouse at 1 mg/kg, iv measured upto 24 hrs by LC-MS/MS analysis. As to conditions: in vivo. It is filed as ADME, organism-based.
In data set [6] the test system is CT26. Briefly: Antitumor activity against mouse CT26 cells xenografted in BALB/c mouse assessed as tumor growth inhibition at 100 mg/kg, po bid measured for 14 days. It is filed as functional. As to conditions: CT26, 336 h, time 14 day, read-out: TGI.
Data set [7] concerns CT26. The data set can be described thus: Antitumor activity against mouse CT26 cells xenografted in BALB/c mouse assessed as tumor growth inhibition at 50 mg/kg, po bid measured for 14 days. It is filed as functional. The note with it: CT26, 336 h, time 14 day, read-out: TGI.
Data set [8] in a line: Toxicity in BALB/c mouse implanted with mouse CT26 cells assessed as change in body weight at 25 to 100 mg/kg, po measured for 14 days. It is filed as organism-based. The note with it: in vivo, 336 h, dose 25-100 mg/kg, time 14 day.
The nature of data set [9]: Toxicity in BALB/c mouse implanted with mouse CT26 cells assessed as lung damage at 100 mg/kg, po measured for 14 days by hematoxylin and eosin staining based fluorescence microscopic analysis. The note with it: in vivo, 336 h, time 14 day. It is filed as organism-based.
Data set [10] in a line: Toxicity in BALB/c mouse implanted with mouse CT26 cells assessed as liver damage at 100 mg/kg, po measured for 14 days by hematoxylin and eosin staining based fluorescence microscopic analysis. It is filed as organism-based. The note with it: in vivo, 336 h, time 14 day.
Data set [11] in a line: Toxicity in BALB/c mouse implanted with mouse CT26 cells assessed as spleen damage at 100 mg/kg, po measured for 14 days by hematoxylin and eosin staining based fluorescence microscopic analysis. It is filed as organism-based. The note with it: in vivo, 336 h, time 14 day.
Data set [12] has as its system CT26. Briefly: Antitumor activity against mouse CT26 cells implanted in po dosed BALB/c mouse assessed as increase in CXCL10 levels measured after 14 days by RT-qPCR analysis. The note with it: dose 25-100 mg/kg, time 14.0 day. It is filed as functional, organism-based.
In data set [13] the test system is CT26. Briefly: Antitumor activity against mouse CT26 cells implanted in po dosed BALB/c mouse assessed as increase in CXCL10 levels at 100 mg/kg measured after 14 days by RT-qPCR analysis. It is filed as functional, organism-based. The note with it: time 14.0 day.
In data set [14] the test system is CT26. The data set can be described thus: Antitumor activity against mouse CT26 cells implanted in po dosed BALB/c mouse assessed as increase in PARP7 levels at 50 to 100 mg/kg measured after 14 days by RT-qPCR analysis. It is filed as functional, organism-based. The note with it: dose 50-100 mg/kg, time 14.0 day.
The next data set concerns NCI-H1373. Briefly: cells. As to conditions: Homo sapiens, NCI-H1373, 144 h.
The test system of data set [15] is CT26. The data set can be described thus: cells. The note with it: Mus musculus, CT26, 144 h.

Each structure is given as a SMILES string. Activity calls are given as the source filed them. The calls are words filed in the database; no cut-off is given here.

As for `C[C@@H](CN1CC(C(=O)N2CCN(c3ncc(C(F)(F)F)cn3)CC2)C1)Nc1cn[nH]c(=O)c1C(F)(F)F`, the half-maximal inhibitory concentration (IC50) in data set [1] is 32.2 µM; in data set [2] it was 0.453 µM; with NCI-H1373 it was 1.09 µM; in the data set on CT26 [15], 19.5 µM. This compound also displayed a t1/2 in [3] of 1.44 h. Also, the time to peak (Tmax) in data set [4] is 0.58 h. This compound gave a mean residence time (MRT inf) in data set [5] of 1.68 h. Besides, the inhibition in vivo at 100 mg/kg in the data set with CT26 [6] was determined as 67%. For the same compound, the inhibition in vivo at 50 mg/kg with CT26 [7] is 46%. The Activity entry in data set [8] is “Non-Toxic”; in data set [9], “Non-Toxic”; in data set [10], “Non-Toxic”; in data set [11] it was “Non-Toxic”; in the data set on CT26 [12], “Dose-Dependent Effect”. Besides, the outcome with CT26 [13] was Active. Moreover, in the data set on CT26 [14], the outcome was inactive.

A word on the IC50: it is the point on the concentration scale where inhibition reaches its midpoint. The term Tmax denotes the time from dosing to the highest level. The MRT inf is a mean duration of stay, worked out from the concentration-time curve.

The values are drawn from ChEMBL document CHEMBL5316291 (J Med Chem, 2023).
